Drawing on patent US20220402950A1, “SUBSTITUTED BENZIMIDAZOLES AS PAD4 INHIBITORS” (BRISTOL-MYERS SQUIBB COMPANY, priority 2018, published 2022), this text covers IC50 for 22 molecules.

Structures are written as SMILES. Read-outs that look alike come from different tables or passages of the source.

The test concerns the target human PAD4 (hPAD4) (Homo sapiens, UniProt Q9UM07). Briefly: RFMS Human PAD4 Functional Assay. The format is biochemical. The following applies: 5 nM hPAD4, 250 μM BAEE. The method in brief: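 RapidFire ESI-MS quantification, normalised to a modified-citrulline internal standard, after phenyl glyoxal (final 4 mM) derivatisation of the TCA-quenched reaction. The enzyme (10 nM) sat 30 min with compound (up to 50 μM final) before 500 μM BAEE (as added) started a 90 min, 37 °C reaction. Buffer: HEPES pH 7.5, 50 μM calcium, 5 μM TPEN.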

[1] abbreviates: hPAD4 RFMS IC50, human PAD4, rapid-fire mass spectrum (RFMS) assay.
Setting [2] is: human PAD4, rapid-fire mass spectrum (RFMS) assay, read-out: hPAD4 RFMS IC50.

Sequence of human PAD4 (hPAD4) (Q9UM07 whole entry): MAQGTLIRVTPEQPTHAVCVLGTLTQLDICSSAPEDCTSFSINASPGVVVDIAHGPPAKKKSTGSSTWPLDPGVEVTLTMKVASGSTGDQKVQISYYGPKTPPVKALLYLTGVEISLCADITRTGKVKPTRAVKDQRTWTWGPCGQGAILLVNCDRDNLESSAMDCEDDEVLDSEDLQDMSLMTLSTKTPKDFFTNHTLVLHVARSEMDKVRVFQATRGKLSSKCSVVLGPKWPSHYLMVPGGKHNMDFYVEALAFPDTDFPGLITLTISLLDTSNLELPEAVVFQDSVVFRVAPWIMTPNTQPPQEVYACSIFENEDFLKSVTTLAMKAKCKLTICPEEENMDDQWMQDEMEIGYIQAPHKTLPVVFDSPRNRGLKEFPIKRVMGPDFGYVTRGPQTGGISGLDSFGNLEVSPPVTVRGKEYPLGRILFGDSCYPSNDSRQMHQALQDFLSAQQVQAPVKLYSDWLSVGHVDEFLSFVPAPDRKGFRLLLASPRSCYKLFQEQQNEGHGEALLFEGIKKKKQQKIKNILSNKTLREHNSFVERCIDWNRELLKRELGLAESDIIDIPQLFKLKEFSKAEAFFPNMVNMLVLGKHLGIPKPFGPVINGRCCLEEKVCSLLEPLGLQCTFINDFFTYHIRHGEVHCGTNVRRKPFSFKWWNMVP

In the case of `COc1cc(C(=O)N2C[C@H](N)C[C@@H](F)C2)cc2nc(-c3cc4cccc(-c5ccc(O)c(F)c5)c4n3CC3CC3)n(C)c12` [Example 206, ((3R,5R)-3-amino-5-fluoropiperidin-1-yl)(2-(1-(cyclopropylmethyl)-7-(3-fluoro-4-hydroxyphenyl)-1H-indol-2-yl)-7-methoxy-1-methyl-1H-benzo[d]imidazol-5-yl)methanone], under setting [1], inhibition was half-maximal at 145 nM (IC50). Turning to `COc1cc(C(=O)N2C[C@H]3CC[C@@H]2[C@@H]3N)cc2nc(-c3cc4cccc(-c5ccc(NC(C)=O)nc5)c4n3CC3CC3)n(C)c12` [Example 106, N-[5-(2-{5-[(1R,4R,7R)-7-amino-2-azabicyclo[2.2.1]heptane-2-carbonyl]-7-methoxy-1-methyl-1H-1,3-benzodiazol-2-yl}-1-(cyclopropylmethyl)-1H-indol-7-yl)pyridin-2-yl]acetamide], the IC50 under setting [1] was determined as 61 nM. As to `CNC(=O)C1CC(c2cccc3cc(-c4nc5cc(C(=O)N6C[C@H]7CC[C@@H]6[C@@H]7N)cc(OC)c5n4C)n(CC4CC4)c23)C1` (single isomer, unassigned) [Example 43], the IC50 under setting [2] turned out to be 20 nM. The same measure, in the same setting: next, `COc1cc(C(=O)N2C[C@H](N)C[C@@H](F)C2)cc2nc(-c3cc4cccc(C5CCN(C(C)=O)CC5)c4n3CC3CC3)n(Cc3cnn(C)c3)c12` [Example 189, 1-(4-(2-(5-((3R,5R)-3-amino-5-fluoropiperidine-1-carbonyl)-7-methoxy-1-((1-methyl-1H-pyrazol-4-yl)methyl)-1H-benzo[d]imidazol-2-yl)-1-(cyclopropylmethyl)-1H-indol-7-yl)piperidin-1-yl)ethan-1-one]: 18 nM. Under setting [1], `COc1cc(C(=O)N2C[C@H](N)C[C@@H](F)C2)cc2nc(-c3cc4cccc(-c5ccc6c(c5)CNC6=O)c4n3CC3CC3)n(C)c12` [Example 209, 5-(2-(5-((3R,5R)-3-amino-5-fluoropiperidine-1-carbonyl)-7-methoxy-1-methyl-1H-benzo[d]imidazol-2-yl)-1-(cyclopropylmethyl)-1H-indol-7-yl)isoindolin-1-one] returned an IC50 of 69 nM. The same measure, in the same setting: for `COc1cc(C(=O)N2C[C@H]3CC[C@@H]2[C@@H]3N)cc2nc(-c3cc4cccc(C5=CCC5)c4n3CC3CC3)n(C)c12` [Example 219, ((1R,4R,7R)-7-amino-2-azabicyclo[2.2.1]heptan-2-yl)(2-(7-(cyclobut-1-en-1-yl)-1-(cyclopropylmethyl)-1H-indol-2-yl)-7-methoxy-1-methyl-1H-benzo[d]imidazol-5-yl)methanone] the value was 52 nM; for `COC(=O)N1CCC(c2cccc3cc(-c4nc5cc(C(=O)N6C[C@H]7CC[C@@H]6[C@@H]7N)cc(OC)c5n4C)n(CC4CC4)c23)CC1` [Example 217, methyl 4-(2-(5-((1R,4R,7R)-7-amino-2-azabicyclo[2.2.1]heptane-2-carbonyl)-7-methoxy-1-methyl-1H-benzo[d]imidazol-2-yl)-1-(cyclopropylmethyl)-1H-indol-7-yl)piperidine-1-carboxylate], 27 nM. Same read-out and setting: next, `COc1cc(C(=O)N2C[C@H]3CC[C@@H]2[C@@H]3N)cc2nc(-c3cc4cccc(C5CCC5)c4n3CC3CC3)n(C)c12` [Example 7, (1R,4R,7R)-2-{2-[7-cyclobutyl-1-(cyclopropylmethyl)-1H-indol-2-yl]-7-methoxy-1-methyl-1H-1,3-benzodiazole-5-carbonyl}-2-azabicyclo[2.2.1]heptan-7-amine]: 158 nM. Still for that read-out and setting: next, `COc1cc(C(=O)N2C[C@H]3CC[C@@H]2[C@@H]3N)cc2nc(-c3cc4cccc(-c5ccc(C(N)=O)c(Cl)c5)c4n3CC3CC3)n(C)c12` [Example 104, 4-(2-{5-[(1R,4R,7R)-7-amino-2-azabicyclo[2.2.1]heptane-2-carbonyl]-7-methoxy-1-methyl-1H-1,3-benzodiazol-2-yl}-1-(cyclopropylmethyl)-1H-indol-7-yl)-2-chlorobenzamide]: 93 nM. With `COc1cc(C(=O)N2C[C@H](N)C[C@@H](F)C2)cc2nc(-c3cc4cccc(C5CN(C(C)=O)C5)c4n3CC3CC3)n(C)c12` [Example 41, 1-[3-(2-{5-[(3R,5R)-3-amino-5-fluoropiperidine-1-carbonyl]-7-methoxy-1-methyl-1H-1,3-benzodiazol-2-yl}-1-(cyclopropylmethyl)-1H-indol-7-yl)azetidin-1-yl]ethan-1-one], the IC50 under setting [2] came out at 53 nM. Molecule `COc1cc(C(=O)N2C[C@H]3CC[C@@H]2[C@@H]3N)cc2nc(-c3cc4cccc(CCO)c4n3CC3CC3)n(C)c12` [Example 35, 2-(2-{5-[(1R,4R,7R)-7-amino-2-azabicyclo[2.2.1]heptane-2-carbonyl]-7-methoxy-1-methyl-1H-1,3-benzodiazol-2-yl}-1-(cyclopropylmethyl)-1H-indol-7-yl)ethan-1-ol] gave an IC50 under setting [1] of 102 nM. Still for that read-out and setting: for `COc1cc(C(=O)N2C[C@H]3CC[C@@H]2[C@@H]3N)cc2nc(-c3cc4cccc(-c5ccc(CNC(C)=O)cc5)c4n3CC3CC3)n(C)c12` [Example 89, N-{[4-(2-{5-[(1R,4R,7R)-7-amino-2-azabicyclo[2.2.1]heptane-2-carbonyl]-7-methoxy-1-methyl-1H-1,3-benzodiazol-2-yl}-1-(cyclopropylmethyl)-1H-indol-7-yl)phenyl]methyl}acetamide] the value was 108 nM; for `COc1cc(C(=O)N2C[C@H]3CC[C@@H]2[C@@H]3N)cc2nc(-c3cc4cccc(C5CN(C(=O)Nc6ccc(F)cc6)C5)c4n3CC3CC3)n(C)c12` [Example 229, 3-(2-(5-((1R,4R,7R)-7-amino-2-azabicyclo[2.2.1]heptane-2-carbonyl)-7-methoxy-1-methyl-1H-benzo[d]imidazol-2-yl)-1-(cyclopropylmethyl)-1H-indol-7-yl)-N-(4-fluorophenyl)azetidine-1-carboxamide], 13 nM; for `COC(=O)N1CC(c2cccc3cc(-c4nc5cc(C(=O)N6C[C@H](N)C[C@@H](F)C6)cc(OC)c5n4Cc4cnn(C)c4)n(CC4CC4)c23)C1` [Example 211, methyl 3-(2-(5-((3R,5R)-3-amino-5-fluoropiperidine-1-carbonyl)-7-methoxy-1-((1-methyl-1H-pyraozl-4-yl)methyl)-1H-benzo[d]imidazol-2-yl)-1-(cyclopropylmethyl)-1H-indol-7-yl)azetidine-1-carboxylate], 26 nM. Take `COc1cc(C(=O)N2C[C@H]3CC[C@@H]2[C@@H]3N)cc2nc(-c3cc4cccc(Nc5cn(C)nc5C)c4n3CC3CC3C)n(C)c12` (stereo partly drawn) [Example 177, ((1R,4R,7R)-7-amino-2-azabicyclo[2.2.1]heptan-2-yl)(2-(7-((1,3-dimethyl-1H-pyrazol-4-yl)amino)-1-((2-methylcyclopropyl)meth-yl)-1H-indol-2-yl)-7-methoxy-1-methyl-1H-benzo[d]imidazol-5-yl)methanone]: it took 40 nM to reach half-maximal inhibition under setting [1] (IC50). The same measure, in the same setting: for `COc1ccc(NC(=O)N2CCC(c3cccc4cc(-c5nc6cc(C(=O)N7C[C@H]8CC[C@@H]7[C@@H]8N)cc(OC)c6n5C)n(CC5CC5)c34)CC2)cc1` [Example 246, 4-(2-(5-((1R,4R,7R)-7-amino-2-azabicyclo[2.2.1]heptane-2-carbonyl)-7-methoxy-1-methyl-1H-benzo[d]imidazol-2-yl)-1-(cyclopropylmethyl)-1H-indol-7-yl)-N-(4-methoxyphenyl)piperi-dine-1-carboxamide] the value was 6 nM. The same measure, in the same setting: for `COc1cc(C(=O)N2C[C@H]3CC[C@@H]2[C@@H]3N)cc2nc(-c3cc4cccc(C5CCCOC5)c4n3CC3CC3)n(C)c12` (stereo partly drawn) [Example 34, (1R,4R,7R)-2-{2-[1-(cyclopropylmethyl)-7-(oxan-3-yl)-1H-indol-2-yl]-7-methoxy-1-methyl-1H-1,3-benzodiazole-5-carbonyl}-2-azabicyclo[2.2.1]heptan-7-amine] the value was 94 nM; for `COc1cc(C(=O)N2C[C@H]3CC[C@@H]2[C@@H]3N)cc2nc(-c3cc4cccc(C5CCN(C(=O)C(OC)C6CC6)CC5)c4n3CC3CC3)n(C)c12` (stereo partly drawn) [Example 233, 1-(4-(2-(5-((1R,4R,7R)-7-amino-2-azabicyclo[2.2.1]heptane-2-carbonyl)-7-methoxy-1-methyl-1H-benzo[d]imidazol-2-yl)-1-(cyclopropylmethyl)-1H-indol-7-yl)piperidin-1-yl)-2-cyclopropyl-2-methoxyethan-1-one], 63 nM. On to `COc1cc(C(=O)N2C[C@H](N)C[C@@H](F)C2)cc2nc(-c3cc4cccc(C5CC(C(=O)N(C)C)C5)c4n3CC3CC3)n(C)c12` (single isomer, unassigned) [Example 118], for which the IC50 under setting [1] was found to be 278 nM. Regarding `COc1cc(C(=O)N2C[C@H]3CC[C@@H]2[C@@H]3N)cc2nc(-c3cc4cccc(Br)c4n3CC3CC3)n(C)c12` [Example 1, ((1R,4R,7R)-7-amino-2-azabicyclo[2.2.1]heptan-2-yl)(2-(7-bromo-1-(cyclopropylmethyl)-1H-indol-2-yl)-7-methoxy-1-methyl-1H-benzo[d]imidazol-5-yl)methanone], under setting [2], the IC50 stood at 162 nM. For `COc1cc(C(=O)N2C[C@H]3CC[C@@H]2[C@@H]3N)cc2nc(-c3cc4cccc(CC5CCOCC5)c4n3CC3CC3)n(C)c12` [Example 31, (1R,4R,7R)-2-{2-[1-(cyclopropylmethyl)-7-[(oxan-4-yl)methyl]-1H-indol-2-yl]-7-methoxy-1-methyl-1H-1,3-benzodiazole-5-carbonyl}-2-azabicyclo[2.2.1]heptan-7-amine], 198 nM corresponded to half-maximal inhibition under setting [1] (IC50). The molecule `CCOC(=O)c1ccccc1-c1cccc2cc(-c3nc4cc(C(=O)N5C[C@H]6CC[C@@H]5[C@@H]6N)cc(OC)c4n3C)n(CC3CC3)c12` [Example 123, ethyl 2-(2-(5-((1R,4R,7R)-7-amino-2-azabicyclo[2.2.1]heptane-2-carbonyl)-7-methoxy-1-methyl-1H-benzo[d]imidazol-2-yl)-1-(cyclopropylmethyl)-1H-indol-7-yl)benzoate] had an IC50 under setting [1] of 84 nM.
